Experimental findings from patent publication US20250127874A1, “CMV EPITOPES” (The Council of the Queensland Institute of Medical Research, priority 2016, published 2025) are described below.

The subject of this test is CD8+ T cells. The test is described as follows: PBMC from HSCT recipients stimulated with HLA-matched peptide epitopes, cultured two weeks with IL-2, IFN-γ production by CD8+ T cells on recall.

From the text: To assess the impact of epitope variation and co-infection on IE-1 specific T cell immunity, PBMC samples from HSCT recipients showing evidence of viral reactivation were stimulated with all potentially HLA-matched variant peptide epitopes then cultured in vitro for two weeks in the presence of IL-2. PBMC from nine HSCT recipients showing immune reconstitution with no evidence of CMV reactivation were also stimulated with HLA-matched variant peptide epitopes (Table 2). As a control, PBMC were stimulated with at least two conserved HLA matched epitopes.

Regarding VTEHDTTLY, where the note is “recipient 17 (HLA-B8), longitudinal analysis during and after viral reactivation”, the “T cell response against epitope” value is given as “absence of a detectable response”. With EDAIAAYTL (Cytomegalovirus), the “T cell response against epitope” value (HLA B44-positive HSCT recipients with reactivation (7)) was “failed to induce a significant T cell response in any recipient”.
